{
  "source": "patent US12318488B2",
  "about": "“Solid dosage form production” (University of Central Lancashire, priority 2018, dated 2025)",
  "assay_type_in_all_cases": "physicochemical",
  "key": {"[1]": {"assay": "Drug content analysis via HPLC of extruded filaments and 3D printed tablets", "conditions": "percentage recovery of the active ingredient", "protocol": "Filaments were prepared with the target concentration of components as detailed in Table III. 10 g of the dry ingredients (% weights according to Table III) was blended with 2 g of distilled non-ionised water (temporary plasticiser) using a mortar and pestle. The resulting blends were fed to a hot melt extruder at 90° C. and mixed at 100 rpm. A Thermo Scientific HAAKE MiniCTW hot melt extruder (Karlsruhe, Germany) was used to prepare the filaments. The filaments were dried for 1 hour at 100° C. in a drying and heating chamber (Binder Inc., series ED, Tuttinglen, Germany) and then used in 3D printing using the methodology described in Example 2 (i.e., nozzle temperature of 150° C.).\nA HPLC method was developed and validated in order to assess the assay of the active substances in the extruded filaments and the 3D printed tablets. Each sample was accurately weighed (approximately 5 mg) and placed in a 1000 ml volumetric flask and dissolved in a mixture of water:acetonitrile:methanol (80:10:10). The solutions were then filtered through an Econofltr 0.2 μm syringe (Agilent Technologies Ltd., Cheadle, UK) and analysed by HPLC.\nLisinopril dihydrate, indapamide, rosuvastatin calcium and amlodipine content was assessed using Agilent UV-HPLC 1260 series (Agilent Technologies, Germany) equipped with a synergy max column (250×4.6 mm, 4 μm particle size), at temperature of 50° C. The analysis was carried out at 210 nm wavelength, flow rate 1 mL/min, injection volume was 100 μl and run time of 35 minutes. The mobile phase consisted of acetonitrile (A) and buffer pH3 (B) (which was prepared by adjustment of the pH of distilled water with phosphoric acid) according to the gradient in Table IV. Drug assay of the multi-layer polypill I (prepared from the uni-matrix) was assessed based on the assumption that each layer corresponds to an equal part of the tablet."}, "[2]": {"assay": "HPLC analysis of hydrocortisone content in extruded filament and FDM 3D printed tablet at different drug loadings", "conditions": "for Drug potency in filament average ± SD (n = 3): Eudragit EPO filament, HME 90° C.; for Drug potency in FDM 3D printed average ± SD (n = 3): nozzle 135° C.", "protocol": "Filaments were compounded according to the formulation in Table VIII using Thermo Fisher Haake MiniCTW compounder. The extruder speed was set at 35 rpm and temperature at 90° C.\nTablets were constructed with the pre-prepared filaments using a commercial FDM 3D printer equipped with 0.4 mm nozzle size. The templates used to print the tablets were designed in a caplet shape using Autodeski 3ds Maxi Design 2012 software version 14.0 (Autodesk, Inc., USA). The design was saved in a stereo-lithography (.stl) file format and was imported to the 3D software, MakerWare Version 3.9.1.1143 (Makerbot Industries, LLC., USA). Tablets were printed using modified settings of the software for PLA: as follows: type of printer: Replicator 2×; resolution: standard; speed of extruder 90 mm/s while extruding and 150 mm/s while traveling; infill: 100%; height of the layer: […]. No supports or rafts were utilized. The temperatures for the nozzle and build plate of the 3D printer were 135° C. and 60° C. respectively. Blue Scotch painter's tape was applied to the build platform to facilitate the adherence of the printed object during FDM 3D printing.\n• Hydrocortisone content was assessed using HPLC using the following conditions: • Mobile phase: water:acetonitrile 1:1. • Stationary phase: Phenomenex® column Synergi Polar RP column with particle size 4 μm with 80 Å • pores, length of 250 mm • Column temperature: 35° C. • Injection Volume: 10 μL. • Flow rate: 1 mL/min • Detection: UV, 254 nm\nThe blend powder, the extruded filament or the printed tablet were placed into a 500 mL volumetric flask along with HCl. The flasks were sonicated for 30 minutes, followed by allowing the solutions to cool back to room temperature (approximately 30 minutes). A 10 mL syringe was filled with the resulting solution. A filter was added to the syringe; the first 5 mL was discarded, the second 5 mL used to fill a HPLC vial."}, "[3]": {"assay": "HPLC analysis of API content in filaments and 3D printed tablets after hot melt extrusion and FDM 3D printing", "conditions": "for Residual Percentage (potency of drug following HME): Filament; for Residual Percentage (potency of drug following HME and FDM 3D printing): Tablets", "protocol": "Filaments containing individual drugs at different concentration were produced to achieve the individual target dose of each model drug. A Thermo Scientific HAAKE MiniCTW hot melt extruder (Karlsruhe, Germany) was used to prepare the filaments. Blank (drug-free) and individual drug loaded filaments were prepared by blending 10 g of dry ingredients (composition according to Table I) with additional 2 g of distilled water (temporary plasticiser) (Table 1) using mortar and pestle. This blend mixture was then fed to the hot melt extruder at 90° C. and mixed at 100 rpm, nozzle size of 1.5 mm. The filaments were extruded at the same temperature at 35 rpm. The extruded filaments were dried at 100° C. at 0% RH for 1 hour in a FD240 Binder heating chamber (Tuttlingen, Germany). For comparison purposes, a filament was also extruded without water at an extrusion temperature of 180° C. and a mixing rate of 100 rpm.\nThe tablets printed were designed using Autodesk® 3ds Max Design 2016 software version 18.0 (Autodesk, Inc., USA). The designs were then imported to the computer software in stereolithographic (STL) format. The extruded filaments were printed by a Makerbot 2×3D printer (Makerbot Industries, NY, USA) fitted with 0.4 mm nozzle and controlled by Simplify 3D software version 4.0 (Cincinnati, OH, USA). Printing took place using nozzle and building plate temperatures of 150 and 40° C. respectively. The tablets were printed following a concentric fill pattern and 100% infill with a layer thickness of 166 μm. For comparison reasons, tablets (without addition of water) were printed following the same settings as above but at nozzle temperature of 210° C.\nThe HPLC analysis was performed using Agilent 1260 series UV-HPLC (Agilent Technologies, Germany) equipped with a Synergi Polar column (250×4.6 mm, 4 μm particle size) (Phenomenex, Macclesfield, UK) at 35° C. The analysis was carried out at a detection wavelength of 254 nm, flow rate of 1 mL/min, injection volume of 100 μL and a 4 minute run time. The mobile phase consisted of a 1:1 mixture of solvent A (acetonitrile) and solvent B (water).\nFor theophylline, the same UV-HPLC system and column were used as detailed above for hydrocortisone. The mobile phase constituted of 10 mM solution of ammonium acetate buffer, methanol and acetonitrile (86:7:7). Analysis was carried out at a wavelength of 272 nm, temperature of 40° C., flow rate of 1 ml/min, injection volume of 5 μL and a run time of 7 min.\nIn order to examine the effect of hot melt extrusion (HME) and FDM 3D printing on the integrity of the active pharmaceutical ingredient (API), API-loaded filaments were analysed for API content post drying as well as in the 3D printed tablets. Samples (API loaded filaments or tablets) were accurately weighed and placed in 250 mL of 1:1 water:acetonitrile mixture for 2 hour under sonication. The solutions were filtered through 0.22 μm Millex-GP syringe filters (Merck Millipore, USA) and prepared for HPLC analysis."}, "[4]": {"conditions": "3D printed at nozzle temperature 150° C."}, "[5]": {"conditions": "HME 90° C., dried 1 hour at 100° C."}, "[6]": {"conditions": "no temporary plasticiser, 180° C. for HME"}, "[7]": {"conditions": "temporary plasticiser (water), 90° C. for HME"}, "[8]": {"conditions": "no temporary plasticiser, 180° C. for HME followed by 210° C. for 3D-printing"}, "[9]": {"conditions": "temporary plasticiser, 90° C. for HME followed by 150° C. for 3D-printing"}, "[10]": {"conditions": "3D printed at nozzle temperature 150° C., in %"}, "[11]": {"conditions": "HME 90° C., dried 1 hour at 100° C., in %"}},
  "data": [
    {"smiles": "CCOC(=O)C1=C(COCCN)NC(C)=C(C(=O)OC)C1c1ccccc1Cl", "note": "(centres unmarked) [Amlodipine besylate, amlodipine besylate]", "values": [
      {"measurement": "Drug contents in tablets, Amlodipine", "setting": "[1]; [4]", "value": "90.68 ± 2.28"},
      {"measurement": "Drug contents in filament, Amlodipine", "setting": "[1]; [5]", "value": "97.89 ± 1.94"}
    ]},
    {"smiles": "C[C@]12CCC(=O)C=C1CC[C@@H]1[C@@H]2[C@@H](O)C[C@@]2(C)[C@H]1CC[C@]2(O)C(=O)CO", "note": "[Hydrocortisone]", "values": [
      {"measurement": "Drug potency in filament average ± SD (n = 3)", "setting": "[2]; Drug Concentration 1%", "value": "85.97 ± 0.14", "unit": "%"},
      {"measurement": "Drug potency in FDM 3D printed average ± SD (n = 3)", "setting": "[2]; Drug Concentration 1%", "value": "75.13 ± 0.62", "unit": "%"},
      {"measurement": "Drug potency in filament average ± SD (n = 3)", "setting": "[2]; Drug Concentration 5%", "value": "92.25 ± 0.21", "unit": "%"},
      {"measurement": "Drug potency in FDM 3D printed average ± SD (n = 3)", "setting": "[2]; Drug Concentration 5%", "value": "95.4 ± 4.3", "unit": "%"},
      {"measurement": "Drug potency in filament average ± SD (n = 3)", "setting": "[2]; Drug Concentration 10%", "value": "99 ± 0.34", "unit": "%"},
      {"measurement": "Drug potency in FDM 3D printed average ± SD (n = 3)", "setting": "[2]; Drug Concentration 10%", "value": "98.2 ± 0.45", "unit": "%"},
      {"measurement": "Residual Percentage (potency of drug following HME)", "setting": "[3]; [6]", "value": 19.98, "unit": "%"},
      {"measurement": "Residual Percentage (potency of drug following HME)", "setting": "[3]; no temporary plasticiser, 180° C. for HME, listed as hydrocortisone", "value": 20, "unit": "%"},
      {"measurement": "Residual Percentage (potency of drug following HME)", "setting": "[3]; [7]", "value": 100.9, "unit": "%"},
      {"measurement": "Residual Percentage (potency of drug following HME)", "setting": "[3]; temporary plasticiser (water), 90° C. for HME, listed as hydrocortisone", "value": 100, "unit": "%"},
      {"measurement": "Residual Percentage (potency of drug following HME and FDM 3D printing)", "setting": "[3]; [8]", "value": 3.02, "unit": "%"},
      {"measurement": "Residual Percentage (potency of drug following HME and FDM 3D printing)", "setting": "[3]; no temporary plasticiser, 180° C. for HME followed by 210° C. for 3D-printing, listed as hydrocortisone", "value": 3.02, "unit": "%"},
      {"measurement": "Residual Percentage (potency of drug following HME and FDM 3D printing)", "setting": "[3]; [9]", "value": 48.6, "unit": "%"},
      {"measurement": "Residual Percentage (potency of drug following HME and FDM 3D printing)", "setting": "[3]; temporary plasticiser, 90° C. for HME followed by 150° C. for 3D-printing, listed as hydrocortisone", "value": 48.6, "unit": "%"}
    ]},
    {"smiles": "CC1Cc2ccccc2N1NC(=O)c1ccc(Cl)c(S(N)(=O)=O)c1", "note": "(centres unmarked) [Indapamide, indapamide]", "values": [
      {"measurement": "Drug contents in tablets, Indapamide", "setting": "[1]; [10]", "value": "96.06 ± 2.06"},
      {"measurement": "Drug contents in filament, Indapamide", "setting": "[1]; [11]", "value": "93.32 ± 1.67"}
    ]},
    {"smiles": "NCCCC[C@H](N[C@@H](CCc1ccccc1)C(=O)O)C(=O)N1CCC[C@H]1C(=O)O", "note": "[Lisinopril dihydrate]", "values": [
      {"measurement": "Drug contents in tablets, Lisinopril", "setting": "[1]; [4]", "value": "87.8 ± 1.5"},
      {"measurement": "Drug contents in filament, Lisinopril", "setting": "[1]; [5]", "value": "93.9 ± 1.66"}
    ]},
    {"smiles": "CC(C)c1nc(N(C)S(C)(=O)=O)nc(-c2ccc(F)cc2)c1/C=C/[C@@H](O)C[C@@H](O)CC(=O)[O-].CC(C)c1nc(N(C)S(C)(=O)=O)nc(-c2ccc(F)cc2)c1/C=C/[C@@H](O)C[C@@H](O)CC(=O)[O-].[Ca+2]", "note": "[Rosuvastatin calcium, rosuvastatin calcium]", "values": [
      {"measurement": "Drug contents in tablets, Rosuvastatin", "setting": "[1]; [10]", "value": "95.4 ± 2.37"},
      {"measurement": "Drug contents in filament, Rosuvastatin", "setting": "[1]; [11]", "value": "98.2 ± 1.09"}
    ]},
    {"smiles": "Cn1c(=O)c2[nH]cnc2n(C)c1=O", "note": "[Theophylline]", "values": [
      {"measurement": "Residual Percentage (potency of drug following HME)", "setting": "[3]; [6]", "value": 100.61, "unit": "%"},
      {"measurement": "Residual Percentage (potency of drug following HME)", "setting": "[3]; [7]", "value": 100, "unit": "%"},
      {"measurement": "Residual Percentage (potency of drug following HME and FDM 3D printing)", "setting": "[3]; [8]", "value": 100.53, "unit": "%"},
      {"measurement": "Residual Percentage (potency of drug following HME and FDM 3D printing)", "setting": "[3]; [9]", "value": 100.2, "unit": "%"}
    ]}
  ]
}
